Measured values published in patent US11149047B2, “Aryl imidazoles for treatment of cancer” (Aptose Biosciences Inc., priority 2017, dated 2021).

What was measured:
Type in all cases: cell-based
[1] = tested on: Mino; assay: Cytotoxicity study (MTS), 5 days; conditions: Homo sapiens, MCL
Procedure: EOL-1, GRANTA-519, Jeko-1, Jurkat, Molm-13, NOMO-1, SKM-1, and SU-DHL-6 were obtained from Leibniz-Institut DSMZ. HL-60, KG-1, Mino, MV4-11, Raji, and THP-1 were obtained from ATCC. HEL92.1.7 were obtained from the European Collection of Authenticated Cell Cultures and Ramos cells were a gift from Dr. M. Andreeff (MD Anderson Cancer Center, Houston, Tex.). All cells were cultured in complete media as per the manufacturer's instructions. Early passage cells were collected and frozen within 1 month of receipt from the manufacturer. All experiments were performed on early passage cells within 6 weeks of thawing. MycoScope Mycoplasma Detection Kit (Genlantis catalog #MY01050) was used to screen for potential contamination every 6 months. Peripheral blood mononuclear cells (PBMC) were isolated from fresh healthy donor blood using Ficoll-Paque PLUS (GE Healthcare, catalog #17-1440-02). For synthesis of COMPOUND I free base, 10-phenanthroline-5,6-dione (1.2 equivalents), acetic acid (22 volumes), 2-methyl-5-fluoroindole-3-carboxaldehyde (1.0 equivalents), and ammonium acetate (15 equivalents) were reacted under medium agitation while heated at 95±5° C. for 3 to 7 hours. The reaction was cooled to between 20° C. and 25° C., filtered, rinsed with acetic acid and ethanol, and dried with N2 purge, followed by a wash with 2:1 ethanol:water at 65° C. for 4 hours, cooling to 20° C. to 25° C., filtration, rinsing with 2:1 ethanol:water and EtOAc, and then dried with N2 purge. The purity by HPLC was 99.5%, and the structural identity was confirmed by FT-IR, ^1HNMR, ^13C NMR, and LC/MS. For Fe(COMPOUND I)3 synthesis, five molar equivalents of ferrous ion FeSO4 in water was added to COMPOUND I dissolved in ethanol. The deep red precipitate produced, Fe(COMPOUND I)3, was collected and dissolved in DMSO and characterized by HPLC and mass spectrometry as >95% pure. CX-5461 (7) was purchased from MedChem Express (catalog #HY-13323).
Cells were plated and treated with vehicle DMSO or COMPOUND I (10 concentrations) in 96-well plates for 5 days at 37° C. and 5% CO2. Cell viability was measured using CellTiter 96 AQueous one solution (MTS) cell proliferation assay (Promega, catalog #G3581), and IC50 values were calculated using GraphPad Prism 7 software.

[2] = tested on: protein levels in MV4-11 cells; assay: Reverse-phase protein array (RPPA) analysis; conditions: 500 nmol/L, 6 h vs vehicle
Procedure: MV4-11 cells were treated as for RNA sequencing (RNA-seq) analysis and whole-cell extracts were prepared for Western blotting. Samples were processed at MD Anderson Cancer Center reverse-phase protein array (RPPA) core facility (details at https://www.mdanderson.org/research/research-resources/core-facilities/functional-proteomics-rppa-core/rppa-process.html). Protein expression levels were averaged for 3 replicates and heatmaps were drawn using GraphPad Prism 7.
To examine the effect of COMPOUND I on protein expression, MV4-11 cells were treated as above and analyzed by RPPA microarray to quantify >300 total and post-translationally modified proteins. […] Of note, there was an increase of cleaved caspase-7, which is indicative of apoptosis. GO analysis of the differentially expressed proteins was performed utilizing the Broad Molecular Signatures database. Significant GO terms included cell death and G1-S cell-cycle arrest pathways, a formal description of G0-G1 arrest, and consistent with the cell-cycle effects detected by flow cytometry and the RNA-seq analyses (FIG. 18C). An increase in E2F1, TP53, γH2AX, CHEK1 phos-S296, and CHEK2 phos-T68 supported the concept that DNA damage pathways are triggered by COMPOUND I treatment. In addition, increases in XBP1, HSPA5, and MAPK14 (p38) phos-T180/182 were observed, indicating ER or cellular stress ([…]; ref 15). DDR pathways can also signal through the MAPK pathway activating MAPK14 and MAPK8 (JNK), and cross-talk between the DDR pathway and ER stress is a well-established phenomenon although it is unclear which pathway represents the initiating event. A significant portion of the differentially expressed proteins and mRNAs are target genes of MYC oncoprotein, which is known to be an integral part of both cell-cycle and apoptotic pathway regulation.

[3] = tested on: MYC in AML cell lines; assay: MYC mRNA (qRT-PCR) and protein (Western blot) levels; conditions: all AML cell lines tested, 24 hours
Procedure: Cells were treated with vehicle or COMPOUND I at various concentrations for 24 hours or at a single concentration for 1, 3, 6, 12, and 24 hours before harvesting. Cells were lysed by QiaShredder columns (QIAGEN, catalog #79656), total RNA was isolated using QIAGEN RNeasy Plus Mini Kit (catalog #74134), and cDNA was synthesized utilizing Transcriptor Universal cDNA master mix (Roche, catalog #05893151001) and then used for qRT-PCR analysis using FastStart essential DNA probes master mix (Roche, catalog #06402682001) and Roche LightCycler96. Primer probe pairs were purchased from IDT (Table 5). Expression was calculated as fold change over vehicle treated samples after normalizing to GAPDH […].
Cells were treated as described above. Whole-cell lysates were prepared, separated by SDS-PAGE, and transferred to nitrocellulose membranes. Densitometry was performed using ImageJ or Image Studio Lite Version5.2 software and normalized to the density of GAPDH.
MYC expression is implicated in the pathogenesis of a wide range of cancers, including leukemia and lymphoma. […] It was also observed that an increased transcription of genes negatively regulated by MYC in COMPOUND I-treated MV4-11 cells. […] The time course of MYC protein repression in MV4-11 cells paralleled inhibition of MYC gene expression levels detected by RNA-seq. […]

## Cc1[nH]c2ccc(F)cc2c1-c1nc2c3cccnc3c3ncccc3c2[nH]1 [COMPOUND I, 2-(5-fluoro-2-methyl-1H-indol-3-yl)-1H-imidazo[4,5-f][1,10]phenanthroline]
[1]
  IC50: 0.23 µM
[2]
  fold change ACC_pS79: 1.302 fold
  fold change ADAR1: 1.308 fold
  fold change Bad_pS112: 1.55 fold
  fold change BiP-GRP78: 1.29 fold
  fold change CD29: 1.291 fold
  fold change Caspase-3: 2.382 fold
  fold change Caspase-7-cleaved: 1.671 fold
  fold change Chk1: 1.433 fold
  fold change Chk2_pT68: 1.312 fold
  fold change Cyclin-B1: 0.5944 fold
  fold change Cyclin-E1: 1.361 fold
  fold change DM-Histone-H3: 2.008 fold
  fold change DM-K9-Histone-H3: 2.003 fold
  fold change E2F1: 1.423 fold
  fold change Ets-1: 0.6034 fold
  fold change H2AX_pS140: 4.196 fold
  fold change Hif-1-alpha: 1.482 fold
  fold change Histone-H3: 5.083 fold
  fold change N-Ras: 1.397 fold
  fold change NDRG1_pT346: 0.4566 fold
  fold change PAI-1: 1.257 fold
  fold change PAR: 2.707 fold
  fold change PLK1: 0.4946 fold
  fold change Pdcd-1L1: 1.262 fold
  fold change Rb_pS807_S811: 0.6486 fold
  fold change S6_pS240_S244: 0.6467 fold
  fold change Syk: 1.433 fold
  fold change Ubq-Histone-H2B: 1.375 fold
  fold change XBP-1: 1.369 fold
  fold change p38_pT180_Y182: 2.022 fold
  fold change p53: 1.288 fold
[3]
  MYC mRNA and protein levels: concentration-dependent decrease in both MYC mRNA and protein levels
